# Reference: patent publication US20030022158A1, “Peptides from the TT virus sequence and monospecific antibodies binding to the TT virus” (priority 1999, published 2003)
# Legend:
# [1] = test system: human IgG antibodies in human serum samples; test: EIA of human antibody reactivities to overlapping synthetic peptides of TTV ORF1 and ORF2 (Tables 2 and 3); format: binding; conditions: for optical density (OD) at 405 nm: serum diluted 1:100, OD over 0.500 considered positive
# Outline: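 Plates were coated 48 h with 18-mer peptides (8-residue overlap) at 10 μg/ml in carbonate buffer pH 9.6, then blocked 2 h at room temperature in PBS/1% BSA/2% goat serum/0.05% Tween 20. Sera were applied at 1:100, and bound IgG was detected with alkaline phosphatase anti-human IgG, read at 405 nm.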
# [2] = test system: human antibodies in human serum samples; test: EIA reactivities of three human serum samples with deletion and alanine substitution analogues of SEQ ID NO: 1 (Table 6); format: binding; conditions: positive = more than 50% of the reactivity of the original peptide
# Procedure: The EIAs used to identify which peptides interacted with human sera followed protocols known in the art. (See Zhang et al., J Gen Virol, 78:2735-2746 (1997), herein expressly incorporated by reference in its entirety). Briefly, microplates (Nunc, Denmark) were coated for 48 hours with synthetic peptides at a concentration of 10 μg/ml in 0.05M sodium carbonate buffer pH 9.6. After blocking for 2 hours at room temperature with phosphate buffered saline containing 1% bovine serum albumin, 2% goat serum and 0.05% Tween 20 (dilution buffer) the plates were incubated with human sera diluted 1:100 in dilution buffer. Bound human IgG was detected by incubation with anti-human IgG antibodies conjugated to alkaline phosphatase (Sigma Chemicals, St. Louis, Mo.). The plates were developed by the addition of […] (Sigma) and the optical densities were determined at 405 nm.
# The reactivity to the TATTTTYAYPGTNRPPV (SEQ ID NO: 1) peptide was further characterized by mapping the reactivity of deletion and substitution peptide analogues.
# [3] = human serum sample 1, negative for TTV DNA by PCR
# [4] = human serum sample 2, negative for TTV DNA by PCR
# [5] = human serum sample 3, negative for TTV DNA by PCR
# [6] = human serum sample 4, negative for TTV DNA by PCR
# [7] = human serum sample 5, negative for TTV DNA by PCR
# [8] = human serum sample 6, negative for TTV DNA by PCR
# [9] = human serum sample 7, negative for TTV DNA by PCR
# [10] = human serum sample 9, positive for TTV DNA by PCR
# [11] = human serum sample 11, negative for TTV DNA by PCR
# [12] = human serum sample 18, positive for TTV DNA by PCR
# [13] = human serum sample 36, positive for TTV DNA by PCR
# [14] = human serum sample 48, positive for TTV DNA by PCR
# [15] = human serum sample 98, positive for TTV DNA by PCR
# [16] = human serum sample 110, positive for TTV DNA by PCR
# [17] = human serum sample 155, positive for TTV DNA by PCR
# [18] = human serum sample 157, positive for TTV DNA by PCR
Substance,"optical density (OD) at 405 nm [1, 3]","optical density (OD) at 405 nm [1, 4]","optical density (OD) at 405 nm [1, 5]","optical density (OD) at 405 nm [1, 6]","optical density (OD) at 405 nm [1, 7]","optical density (OD) at 405 nm [1, 8]","optical density (OD) at 405 nm [1, 9]","optical density (OD) at 405 nm [1, 10]","optical density (OD) at 405 nm [1, 11]","optical density (OD) at 405 nm [1, 12]","optical density (OD) at 405 nm [1, 13]","optical density (OD) at 405 nm [1, 14]","optical density (OD) at 405 nm [1, 15]","optical density (OD) at 405 nm [1, 16]","optical density (OD) at 405 nm [1, 17]","optical density (OD) at 405 nm [1, 18]","OD at 405 nm, reactivity of human serum sample P4 [2]","OD at 405 nm, reactivity of human serum sample P7 [2]","OD at 405 nm, reactivity of human serum sample P36 [2]",other results
"YTDIKYNPFTDRGEGNM (Peptide Immunogen) [compound 44, overlapping synthetic peptide of TTV ORF1]",0.09 OD,0.11 OD,0.11 OD,0.12 OD,0.98 OD,0.15 OD,0.10 OD,0.09 OD,0.14 OD,0.09 OD,0.08 OD,0.08 OD,0.12 OD,0.13 OD,0.17 OD,1.25 OD,0.855 OD,1.829 OD,0.806 OD,"human reactivity to peptide (reactive peptides within ORF1) ([1]; tested human sera, EIA): Reactive"
peptide 1: overlapping synthetic peptide of TTV ORF1 (TATTTTYAYPGTNRPPV),0.00 OD,0.00 OD,0.00 OD,0.00 OD,0.00 OD,0.00 OD,0.00 OD,0.00 OD,0.00 OD,0.00 OD,0.00 OD,0.00 OD,0.00 OD,0.00 OD,0.00 OD,0.00 OD,0.839 OD,1.845 OD,0.825 OD,"optical density (OD) at 405 nm, EIA reactivity of human serum sample 1 ([1]; serum sample 1, negative for TTV DNA by PCR, serum 1:100, peptide coated 10 μg/ml, OD over 0.500 positive): 0.09 OD; optical density (OD) at 405 nm, EIA reactivity of human serum sample 2 ([1]; serum sample 2, negative for TTV DNA by PCR, serum 1:100, peptide coated 10 μg/ml, OD over 0.500 positive): 0.10 OD; optical density (OD) at 405 nm, EIA reactivity of human serum sample 3 ([1]; serum sample 3, negative for TTV DNA by PCR, serum 1:100, peptide coated 10 μg/ml, OD over 0.500 positive): 0.13 OD; optical density (OD) at 405 nm, EIA reactivity of human serum sample 4 ([1]; serum sample 4, negative for TTV DNA by PCR, serum 1:100, peptide coated 10 μg/ml, OD over 0.500 positive): 0.11 OD; optical density (OD) at 405 nm, EIA reactivity of human serum sample 5 ([1]; serum sample 5, negative for TTV DNA by PCR, serum 1:100, peptide coated 10 μg/ml, OD over 0.500 positive): 0.10 OD; optical density (OD) at 405 nm, EIA reactivity of human serum sample 6 ([1]; serum sample 6, negative for TTV DNA by PCR, serum 1:100, peptide coated 10 μg/ml, OD over 0.500 positive): 0.16 OD; optical density (OD) at 405 nm, EIA reactivity of human serum sample 7 ([1]; serum sample 7, negative for TTV DNA by PCR, serum 1:100, peptide coated 10 μg/ml, OD over 0.500 positive): 0.09 OD; optical density (OD) at 405 nm, EIA reactivity of human serum sample 9 ([1]; serum sample 9, positive for TTV DNA by PCR, serum 1:100, peptide coated 10 μg/ml, OD over 0.500 positive): 0.08 OD; optical density (OD) at 405 nm, EIA reactivity of human serum sample 11 ([1]; serum sample 11, negative for TTV DNA by PCR, serum 1:100, peptide coated 10 μg/ml, OD over 0.500 positive): 0.12 OD; optical density (OD) at 405 nm, EIA reactivity of human serum sample 18 ([1]; serum sample 18, positive for TTV DNA by PCR, serum 1:100, peptide coated 10 μg/ml, OD over 0.500 positive): 0.08 OD; optical density (OD) at 405 nm, EIA reactivity of human serum sample 36 ([1]; serum sample 36, positive for TTV DNA by PCR, serum 1:100, peptide coated 10 μg/ml, OD over 0.500 positive): 0.09 OD; optical density (OD) at 405 nm, EIA reactivity of human serum sample 48 ([1]; serum sample 48, positive for TTV DNA by PCR, serum 1:100, peptide coated 10 μg/ml, OD over 0.500 positive): 0.08 OD; optical density (OD) at 405 nm, EIA reactivity of human serum sample 98 ([1]; serum sample 98, positive for TTV DNA by PCR, serum 1:100, peptide coated 10 μg/ml, OD over 0.500 positive): 0.08 OD; optical density (OD) at 405 nm, EIA reactivity of human serum sample 110 ([1]; serum sample 110, positive for TTV DNA by PCR, serum 1:100, peptide coated 10 μg/ml, OD over 0.500 positive): 0.08 OD; optical density (OD) at 405 nm, EIA reactivity of human serum sample 155 ([1]; serum sample 155, positive for TTV DNA by PCR, serum 1:100, peptide coated 10 μg/ml, OD over 0.500 positive): 0.14 OD; optical density (OD) at 405 nm, EIA reactivity of human serum sample 157 ([1]; serum sample 157, positive for TTV DNA by PCR, serum 1:100, peptide coated 10 μg/ml, OD over 0.500 positive): 0.14 OD"
